According to patent US10233426B2, “Method for inducing cardiac differentiation of pluripotent stem cell with low-molecular compounds” (KYOTO UNIVERSITY, priority 2014, dated 2019):

System: not listed separately
Assay: Induction of cardiac differentiation by a procedure as described in the Examples in WO 2012/026491
Type: cell-based
Details: not given

Row | SMILES | effect of inducing cardiac differentiation
1 | COc1ccc(CC(=O)Nc2nc3ccc(I)cc3s2)cc1OC [KY01-I, 2-(2-(3,4-dimethoxyphenyl)acetamido)-6-iodobenzothiazole] | found to have the effect of inducing cardiac differentiation
2 | COc1ccc(CCC(=O)Nc2nc3ccc(I)cc3s2)cc1OC [KY02-I, 2-(3-(3,4-dimethoxyphenyl)propanamido)-6-iodobenzothiazole] | found to have the effect of inducing cardiac differentiation
3 | COc1ccc(CCCC(=O)Nc2nc3ccc(I)cc3s2)cc1OC [KY03-I, 2-(4-(3,4-dimethoxyphenyl)propanamido)-6-iodobenzothiazole] | found to have the effect of inducing cardiac differentiation
4 | CCCOc1ccc(CCC(=O)Nc2nc3ccc(I)cc3s2)cc1OC [SO2077, 2-(3-(3-methoxy-4-propoxyphenyl)propanamido)-6-iodobenzothiazole] | found to have the effect of inducing cardiac differentiation

System: mesoderm-related genes (MSGN1, T, MIXL1 and NODAL)
Assay: Quantitative PCR for expression of mesoderm-related genes under PFCD condition
Type: cell-based, human
Details: IMR90-1; 1 μM XAV939, 0.3 μM A419259, 10 μM AG1478, 3 μM KY03-I, day 3 to day 4; mRNA on day 4; FIG. 3f
Experimental: A human iPS cell line (IMR90-1 cultured on MEF feeder) was cultured in PFCD culture media, to which 2 μM CHIR99021 or 0.3 μM PMA or the both (CHIR99021+PMA) were added for early phase of cardiac differentiation (day 0 to day 2). On day 2, mRNA was extracted the cultured cells and analyzed by quantitative PCR for the expression of mesoderm-related genes (MSGN1, T, MIXL1 and NODAL) (FIG. 3e). As a control, cells were cultured similarly, but with DMSO in place of the test compounds. The gene expression level in the control cells was assigned to one. […] In contrast, the expression of the genes was reduced when PMA was added to the culture. However, the reduction in gene expression by PMA was counteracted and reversed when CHIR99021 was added in combination with PMA (in accordance with the optimal PFCD condition).
A human iPS cell line (IMR90-1 from culture on MEF feeder) was cultured in PFCD media with one of 1 μM XAV939, 0.3 μM A419259, 10 μM AG1478 or 3 μM KY03-I, or all of them (XAV939+A419259+AG1478+KY03-I) in late phase of cardiac differentiation (day 3 to day 4). On day 4, mRNA was extracted from the cultured cells and analyzed by quantitative PCR for the expression of mesoderm-related genes (MSGN1, T, MIXL1 and NODAL) (FIG. 3f).

Row | SMILES | expression level of NODAL | expression of MSGN1, T and MIXL1
5 | CN1CCN(C2CCC(n3cc(-c4ccc(Oc5ccccc5)cc4)c4c(N)ncnc43)CC2)CC1 (centres unmarked) [A419259] | not significantly different | reduced
6 | Oc1nc(-c2ccc(C(F)(F)F)cc2)nc2c1CSCC2 [XAV939] | not significantly different | reduced
7 | COc1ccc(CCCC(=O)Nc2nc3ccc(I)cc3s2)cc1OC [KY03-I, 2-(4-(3,4-dimethoxyphenyl)propanamido)-6-iodobenzothiazole] | not significantly different | reduced

System: monkey ES cell line transfected with an αMHC promoter-driven GFP gene
Assay: Chemical screening: GFP fluorometry for cardiac differentiation of monkey ES cells
Type: cell-based, cynomolgus monkey
Details: 1 to 3 μM in late phase, alone or in combination with KY02111 (10 μM in late phase); FIG. 1e
Experimental: Pluripotent stem cells were cultured in culture media to which the test compounds were added in different concentrations (0.3 μM, 1 μM, 3 μM and 10 μM) in early phase and late phase of differentiation of the cells. Cells from the culture were subjected to GFP fluorometry in accordance with the cardiac differentiation protocol shown in FIG. 1a. Besides the test compounds, 10 μM KY02111 was included in the culture media for the late phase differentiation. The intensity of GFP fluorescence determined in the cells from the control culture, which was cultured with no test compound other than KY02111, was assigned to one.
The scheme of chemical screening is illustrated in FIG. 1a. Compounds were screened for the ability of increasing GFP fluorescence compared with the control (KY02111 alone) using a monkey ES cell line transfected with an αMHC promoter-driven GFP gene (Minami et al., Cell Reports 2, 1448-1460, 2012, which is incorporated herein by reference). The ES cell line was derived from a monkey ES cell line (cynomolgus monkey CMK6.4) by transfecting the cells with a vector which expresses green fluorescent protein (GFP) under control by a promoter of α-MHC gene (a marker of cardiac differentiation). The cells were plated at 4.0×10^5 cells per well in 6 well plates (Asahi Glass/5816-006: Ezview culture plates) and cultured for nine days in an IMDM-based medium for cardiac differentiation (200 ml IMDM medium (Sigma 13390), with 50 ml calf serum (GIBCO 10099-141), 2.5 ml MEM non-essential amino acid solution (Sigma M7145), 2.5 ml penicillin-streptomycin ([…]), 2.5 ml 200 mM L-glutamine, 2 ul 2-mercaptoethanol (Sigma M7522), and 255 ul 5N NaOH). Each test compound was added to the medium at different concentrations in the early phase (day 0 to day 3) and the late phase (day 4 to day 7) of cardiac differentiation. Cells obtained from the culture on day 9 were subjected to GFP fluorometry with a Metamorph imaging system. […]

Row | SMILES | increase of cardiac differentiation
8 | CN1CCN(C2CCC(n3cc(-c4ccc(Oc5ccccc5)cc4)c4c(N)ncnc43)CC2)CC1 (centres unmarked) [A419259] | two- to five-fold

Same assay, conditions: test compound 0.3 μM in Early phase (day 0 to day 3); 10 μM KY02111 in late phase; GFP fluorometry day 9

Row | SMILES | intensity of GFP fluorescence relative to control culture (KY02111 only, assigned to one)
9 | CN1CCN(C2CCC(n3cc(-c4ccc(Oc5ccccc5)cc4)c4c(N)ncnc43)CC2)CC1 (centres unmarked) [A419259] | 0.15

Same assay, conditions: test compound 0.3 μM in Late phase (day 4 to day 7) with 10 μM KY02111; GFP fluorometry day 9

Row | SMILES | intensity of GFP fluorescence relative to control culture (KY02111 only, assigned to one)
10 | CN1CCN(C2CCC(n3cc(-c4ccc(Oc5ccccc5)cc4)c4c(N)ncnc43)CC2)CC1 (centres unmarked) [A419259] | 1.7

Same assay, conditions: test compound 1 μM in Early phase (day 0 to day 3); 10 μM KY02111 in late phase; GFP fluorometry day 9

Row | SMILES | intensity of GFP fluorescence relative to control culture (KY02111 only, assigned to one)
11 | CN1CCN(C2CCC(n3cc(-c4ccc(Oc5ccccc5)cc4)c4c(N)ncnc43)CC2)CC1 (centres unmarked) [A419259] | 0.01

Same assay, conditions: test compound 1 μM in Late phase (day 4 to day 7) with 10 μM KY02111; GFP fluorometry day 9

Row | SMILES | intensity of GFP fluorescence relative to control culture (KY02111 only, assigned to one)
12 | CN1CCN(C2CCC(n3cc(-c4ccc(Oc5ccccc5)cc4)c4c(N)ncnc43)CC2)CC1 (centres unmarked) [A419259] | 5.56

Same assay, conditions: test compound 3 μM in Early phase (day 0 to day 3); 10 μM KY02111 in late phase; GFP fluorometry day 9

Row | SMILES | intensity of GFP fluorescence relative to control culture (KY02111 only, assigned to one)
13 | CN1CCN(C2CCC(n3cc(-c4ccc(Oc5ccccc5)cc4)c4c(N)ncnc43)CC2)CC1 (centres unmarked) [A419259] | 0

Same assay, conditions: test compound 3 μM in Late phase (day 4 to day 7) with 10 μM KY02111; GFP fluorometry day 9

Row | SMILES | intensity of GFP fluorescence relative to control culture (KY02111 only, assigned to one)
14 | CN1CCN(C2CCC(n3cc(-c4ccc(Oc5ccccc5)cc4)c4c(N)ncnc43)CC2)CC1 (centres unmarked) [A419259] | 4.8

Same assay, conditions: test compound 10 μM in Early phase (day 0 to day 3); 10 μM KY02111 in late phase; GFP fluorometry day 9

Row | SMILES | intensity of GFP fluorescence relative to control culture (KY02111 only, assigned to one)
15 | CN1CCN(C2CCC(n3cc(-c4ccc(Oc5ccccc5)cc4)c4c(N)ncnc43)CC2)CC1 (centres unmarked) [A419259] | 0

Same assay, conditions: test compound 10 μM in Late phase (day 4 to day 7) with 10 μM KY02111; GFP fluorometry day 9

Row | SMILES | intensity of GFP fluorescence relative to control culture (KY02111 only, assigned to one)
16 | CN1CCN(C2CCC(n3cc(-c4ccc(Oc5ccccc5)cc4)c4c(N)ncnc43)CC2)CC1 (centres unmarked) [A419259] | 0.32

Same assay, conditions: under appropriate conditions; Table 1

Row | SMILES | cardiac differentiation (screening conclusion)
17 | CN1CCN(C2CCC(n3cc(-c4ccc(Oc5ccccc5)cc4)c4c(N)ncnc43)CC2)CC1 (centres unmarked) [A419259] | promoted
